Source: US11926584B2, “Methods of making bempedoic acid and compositions of the same” (Esperion Therapeutics, Inc., priority 2019, dated 2024)

Legend:
[1] = Dynamic vapor sorption (water sorption) of the crystalline form; format: physicochemical; details: relative humidity of 80%, temperature of 25° C., isotherm in FIG. 6
Procedure: The crystalline form of the compound of formula (V) may also be characterized according to its water sorption properties. […] In certain embodiments, the crystalline form of the compound of formula (V) has a water sorption isotherm, when measured at 25° C., substantially the same as shown in FIG. 6.

[2] = Thermogravimetric analysis (TGA) of the crystalline form; format: physicochemical; details: heated at 10° C./minute from ambient (~25° C.) to about 315° C., open platinum pans
Procedure: Thermogravimetric analysis (TGA) data for the crystalline form of the compound of formula (V) were collected using a TA Discovery 550 TGA instrument. The TGA instrument was calibrated using a nickel reference standard. Samples of the crystalline form of the compound of formula (V) were placed in open platinum sample pans and heated at a rate of 10° C./minute from about ambient temperature (˜25° C.) to about 315° C.

## CC(C)(CCCCCC(O)CCCCCC(C)(C)C(=O)O)C(=O)O [compound of formula (V), 8-hydroxy-2,2,14,14-tetramethylpentadecanedioic acid]
[1]
  change in mass, as determined by dynamic vapor sorption: about 0.03%
[2]
  weight loss in TGA curve: negligible weight loss prior to decomposition
